In ChEMBL document CHEMBL4043111, “Asymmetric synthesis and evaluation of epoxy-α-acyloxycarboxamides as selective inhibitors of cathepsin L” (Bioorg Med Chem, 2017):
pIC50, pKi: −log10 of the molar value. Values joined by “and” are separate entries in the source; they are usually repeats but may differ in a detail not shown here. Equal values may be shown once. Active and inactive are the calls of the source. The calls are words filed in the database; no cut-off is given here.

What was measured:
Procathepsin L [1] = target: T1, Procathepsin L (Homo sapiens, UniProt P07711); assay: Inhibition of human liver cathepsin L at 25 uM peincubated for 5 mins followed by Z-FR-MCA addition by spectrofluorimetric method relative to control
Target sequence in this assay (P07711 114-333 limits assumed): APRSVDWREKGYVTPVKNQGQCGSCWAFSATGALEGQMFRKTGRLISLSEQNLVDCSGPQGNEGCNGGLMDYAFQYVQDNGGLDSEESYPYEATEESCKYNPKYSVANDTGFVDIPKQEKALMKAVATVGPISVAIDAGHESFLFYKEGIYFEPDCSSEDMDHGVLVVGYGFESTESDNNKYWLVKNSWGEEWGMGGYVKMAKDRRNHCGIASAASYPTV

[2] = target: T2, Cathepsin K (Homo sapiens) (UniProt P43235); assay: Inhibition of cathepsin K (unknown origin) at 25 uM peincubated for 5 mins followed by Z-FR-MCA addition by spectrofluorimetric method relative to control
T2 sequence (whole entry): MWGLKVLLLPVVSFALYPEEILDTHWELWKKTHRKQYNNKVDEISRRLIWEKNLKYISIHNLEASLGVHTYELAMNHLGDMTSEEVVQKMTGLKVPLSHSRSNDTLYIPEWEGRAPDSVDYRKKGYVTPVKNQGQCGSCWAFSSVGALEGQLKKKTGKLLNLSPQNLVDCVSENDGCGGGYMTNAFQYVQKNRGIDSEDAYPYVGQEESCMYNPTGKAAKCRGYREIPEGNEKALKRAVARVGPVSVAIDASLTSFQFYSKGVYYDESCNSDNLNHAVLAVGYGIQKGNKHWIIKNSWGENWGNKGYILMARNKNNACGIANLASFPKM

[3] = target: T3, Cathepsin L2 (Homo sapiens) (UniProt O60911); assay: Inhibition of cathepsin V (unknown origin) at 25 uM peincubated for 5 mins followed by Z-FR-MCA addition by spectrofluorimetric method relative to control
T3 sequence (whole entry): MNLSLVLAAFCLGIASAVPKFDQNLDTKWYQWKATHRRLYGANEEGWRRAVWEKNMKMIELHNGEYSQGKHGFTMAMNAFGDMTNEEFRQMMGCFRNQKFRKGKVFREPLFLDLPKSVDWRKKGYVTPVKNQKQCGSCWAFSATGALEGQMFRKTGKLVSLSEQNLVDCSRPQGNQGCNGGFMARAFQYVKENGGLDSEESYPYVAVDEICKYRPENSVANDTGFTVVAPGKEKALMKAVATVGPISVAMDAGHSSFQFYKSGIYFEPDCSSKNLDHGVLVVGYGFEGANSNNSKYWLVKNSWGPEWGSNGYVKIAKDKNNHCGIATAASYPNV

Procathepsin L [4] = target: T1, Procathepsin L; assay: Inhibition of human liver cathepsin L peincubated for 5 mins followed by Z-FR-MCA addition by spectrofluorimetric method
Target sequence in this assay (P07711 whole entry): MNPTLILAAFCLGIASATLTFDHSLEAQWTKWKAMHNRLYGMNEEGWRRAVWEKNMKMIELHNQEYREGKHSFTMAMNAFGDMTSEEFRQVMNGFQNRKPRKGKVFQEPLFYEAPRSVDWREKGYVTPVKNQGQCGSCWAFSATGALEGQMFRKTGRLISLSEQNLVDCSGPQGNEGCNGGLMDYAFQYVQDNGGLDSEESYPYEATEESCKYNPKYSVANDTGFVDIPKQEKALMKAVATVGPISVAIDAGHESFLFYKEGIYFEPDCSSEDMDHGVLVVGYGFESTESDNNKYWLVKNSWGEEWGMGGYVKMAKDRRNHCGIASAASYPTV

Cathepsin K = target: T4, Cathepsin K (Homo sapiens, UniProt P43235); assay: Inhibition of cathepsin K (unknown origin) peincubated for 5 mins followed by Z-FR-MCA addition by spectrofluorimetric method
T4 sequence (P43235 whole entry): T2 sequence (whole entry)

Procathepsin L [5] = target: T1, Procathepsin L; assay: Reversible inhibition of human liver cathepsin L peincubated for 30 mins followed by addition of 6 uM of substrate Z-FR-MCA measured after 10 mins by spectrofluorimetric method
Target sequence in this assay (P07711 whole entry): as above

Procathepsin L [6] = target: T1, Procathepsin L; assay: Reversible inhibition of human liver cathepsin L peincubated for 30 mins followed by addition of 5 uM of substrate Z-FR-MCA measured after 10 mins by spectrofluorimetric method
Target sequence in this assay (P07711 whole entry): as above

Procathepsin L [7] = target: T1, Procathepsin L; assay: Reversible inhibition of human liver cathepsin L peincubated for 30 mins followed by addition of 4.5 uM of substrate Z-FR-MCA measured after 10 mins by spectrofluorimetric method
Target sequence in this assay (P07711 whole entry): as above

Procathepsin L [8] = target: T1, Procathepsin L; assay: Uncompetitive inhibition of cathepsin L (unknown origin) peincubated for 30 mins followed by substrate Z-FR-MCA addition measured after 10 mins by spectrofluorimetric method
Target sequence in this assay (P07711 whole entry): as above

Procathepsin L [9] = target: T1, Procathepsin L; assay: Reversible inhibition of human liver cathepsin L peincubated for 30 mins followed by addition of 9 uM of substrate Z-FR-MCA measured after 10 mins by spectrofluorimetric method
Target sequence in this assay (P07711 whole entry): as above

Procathepsin L [10] = target: T1, Procathepsin L; assay: Reversible inhibition of human liver cathepsin L peincubated for 30 mins followed by addition of 5.5 uM of substrate Z-FR-MCA measured after 10 mins by spectrofluorimetric method
Procathepsin L [11] = target: T1, Procathepsin L; assay: Reversible inhibition of human liver cathepsin L peincubated for 30 mins followed by addition of 3.5 uM of substrate Z-FR-MCA measured after 10 mins by spectrofluorimetric method
Procathepsin L [12] = target: T1, Procathepsin L; assay: Reversible inhibition of human liver cathepsin L peincubated for 30 mins followed by addition of 4 uM of substrate Z-FR-MCA measured after 10 mins by spectrofluorimetric method
Procathepsin L [13] = target: T1, Procathepsin L; assay: Reversible inhibition of human liver cathepsin L peincubated for 30 mins followed by addition of 8 uM of substrate Z-FR-MCA measured after 10 mins by spectrofluorimetric method
Procathepsin L [14] = target: T1, Procathepsin L; assay: Reversible inhibition of human liver cathepsin L peincubated for 30 mins followed by addition of 7 uM of substrate Z-FR-MCA measured after 10 mins by spectrofluorimetric method

inhibition (Procathepsin L [1])	inhibition [2] [%]	inhibition [3] [%]	Structure (SMILES)	also measured
69%	–	–	CCCCCCC[C@H]1O[C@@H]1C(OC(=O)CCCCCBr)C(=O)NCCCC (mixture of isomers)	–
2.9%	0	3.9	CCCC(=O)OC(C(=O)NCc1ccccc1)[C@H]1O[C@@H]1c1ccccc1[N+](=O)[O-] (mixture of isomers)	–
65%	–	–	CCCCCCC[C@H]1O[C@@H]1C(OC(=O)c1ccc(I)cc1)C(=O)NC(C)(C)C (mixture of isomers)	–
–	–	–	CCCCCCCC1OC1C(OC(=O)c1ccc(I)cc1)C(=O)NC1CCCCC1 (stereo not given)	pIC50 (Procathepsin L [4]): 5.66 and 5.37
70%	–	–	CCCCCCC[C@H]1O[C@@H]1C(OC(=O)C1CCCCC1)C(=O)NCCCC (mixture of isomers)	–
–	–	–	CCCCCCCC1OC1C(OC(=O)c1ccc(I)cc1)C(=O)NC1CCCCC1 (mixture of isomers; form 2)	pIC50 (Procathepsin L [4]): 5.69
inactive	–	–	CCCCCCC[C@H]1O[C@@H]1C(OC(=O)C1CCCCC1)C(=O)NC(C)(C)C (mixture of isomers)	–
86.4%	69.1	43.5	CCCCCCC[C@H]1O[C@@H]1C(OC(=O)c1ccccc1)C(=O)NC(C)(C)C (mixture of isomers)	pIC50 (Cathepsin K): 4.90
43%	–	–	CCCCCCC[C@H]1O[C@@H]1C(OC(=O)CC(C)C)C(=O)NCc1ccccc1 (mixture of isomers)	–
67.3%	38.7	0	CCCCCCC[C@H]1O[C@@H]1C(OC(=O)[C@H]1CCCN1C(=O)OC(C)(C)C)C(=O)NC(C)(C)C (mixture of isomers)	–
52.6%	39.3	0	CCCCCCC[C@H]1O[C@@H]1C(OC(=O)[C@@H]1CCCN1C(=O)OC(C)(C)C)C(=O)NC(C)(C)C (single isomer, unassigned)	–
98.5%	78	30.8	CCCCCCC[C@H]1O[C@@H]1C(OC(=O)c1ccc(I)cc1)C(=O)NC1CCCCC1 (mixture of isomers)	pIC50 (Procathepsin L [5]): 5.28; pIC50 (Procathepsin L [6]): 5.01; pIC50 (Procathepsin L [7]): 4.95; pKi (Procathepsin L [8]): 5.88; pIC50 (Procathepsin L [9]): 5.22; pIC50 (Cathepsin K): 5.24; pIC50 (Procathepsin L [10]): 5.29; pIC50 (Procathepsin L [11]): 4.77; pIC50 (Procathepsin L [12]): 4.94; pIC50 (Procathepsin L [13]): 5.24; pIC50 (Procathepsin L [14]): 5.14
inactive	–	–	CCCCCCC[C@H]1O[C@@H]1C(OC(=O)CCCCCBr)C(=O)NC(C)(C)C (mixture of isomers)	–
–	–	–	CCCCCCCC1OC1C(OC(=O)c1ccc(I)cc1)C(=O)NC1CCCCC1 (mixture of isomers; form 1)	pIC50 (Procathepsin L [4]): 5.95
inactive	–	–	CCCCCCC[C@H]1O[C@@H]1C(OC(=O)CC(C)C)C(=O)NCCCC (mixture of isomers)	–
10.5%	21.5	21.3	CC(C)(C)NC(=O)C(OC(=O)c1ccccc1)[C@H]1O[C@@H]1c1ccccc1[N+](=O)[O-] (mixture of isomers)	–
69%	–	–	CCCCCCC[C@H]1O[C@@H]1C(OC(=O)CCCCCBr)C(=O)NC1CCCCC1 (mixture of isomers)	–
74%	–	–	CCCCCCC[C@H]1O[C@@H]1C(OC(=O)c1ccc(I)cc1)C(=O)NCCCC (mixture of isomers)	–
84%	–	–	CCCCCCCCNC(=O)C(OC(=O)CCCCCBr)[C@H]1O[C@@H]1c1ccccc1[N+](=O)[O-] (mixture of isomers)	pIC50 (Procathepsin L [4]): 5.07
inactive	–	–	CCCCCCC[C@H]1O[C@@H]1C(OC(=O)c1ccccc1)C(=O)NCC(=O)OC (mixture of isomers)	–
